Laboratory results: US20230159532A1, “PARATHYROID HORMONE (PTH) RECEPTOR ANTAGONISTS AND USES THEREOF” (Crinetics Pharmaceuticals, Inc., priority 2021, published 2023)

Molecular target: T1, human PTHR1 receptor (Homo sapiens, UniProt Q03431)
T1 construct: purchased Eurofins HTS030M
T1 sequence (Q03431 27-593): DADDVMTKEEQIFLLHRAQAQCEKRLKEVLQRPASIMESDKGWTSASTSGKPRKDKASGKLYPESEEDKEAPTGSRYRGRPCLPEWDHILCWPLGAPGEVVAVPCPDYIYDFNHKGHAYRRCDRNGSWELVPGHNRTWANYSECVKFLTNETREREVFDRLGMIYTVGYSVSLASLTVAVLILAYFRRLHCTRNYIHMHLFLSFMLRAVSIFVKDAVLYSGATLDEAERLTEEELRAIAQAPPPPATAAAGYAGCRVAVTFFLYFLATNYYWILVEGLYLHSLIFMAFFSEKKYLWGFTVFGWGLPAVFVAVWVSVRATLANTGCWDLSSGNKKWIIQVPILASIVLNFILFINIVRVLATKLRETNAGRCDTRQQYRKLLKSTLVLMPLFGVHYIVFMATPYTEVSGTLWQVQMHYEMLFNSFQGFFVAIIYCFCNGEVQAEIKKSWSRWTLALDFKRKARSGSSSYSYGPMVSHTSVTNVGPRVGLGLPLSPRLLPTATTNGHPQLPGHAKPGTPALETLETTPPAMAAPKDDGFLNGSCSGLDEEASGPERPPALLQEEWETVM
Experiment: Competitive antagonist binding assay for hPTH-R1 (radioactive competition binding, SPA beads)
Details: human PTHR1 membranes, [125I]-[Nle8,18,Tyr34]-PTH(1-34) 0.2 nM, 90 minutes at room temperature; read-out: hPTHR1 Ki
Summary of the method: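 Human PTHR1 membranes on SPA beads incubated 90 min at room temperature with compound (typically 0-10,000 nM final) and 0.2 nM [125I]-[Nle8,18,Tyr34]-PTH(1-34) in HEPES buffer with MgCl2, CaCl2, BSA, Triton X-100 and protease inhibitors, pH 7.4. Scintillation signal read; Ki values derived.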

CCN1C(=O)N(c2c(F)cc(NCCNC3CCOC3)cc2F)c2cc(Cl)ccc2-c2cc(C)cnc21 (centres unmarked) [1-28, 13-chloro-10-[2,6-difluoro-4-({2-[(oxolan-3-yl)amino]ethyl}amino)phenyl]-8-ethyl-4-methyl-6,8,10-triazatricyclo[9.4.0.0^2,7]pentadeca-1(11),2(7),3,5,12,14-hexaen-9-one]
Ki: < 100 nM

CCN1C(=O)N(c2c(F)cc(NCCNC)cc2F)c2cc(F)ccc2-c2cc(Cl)cnc21 [1-130, 4-chloro-10-(2,6-difluoro-4-{[2-(methylamino)ethyl]amino}phenyl)-8-ethyl-13-fluoro-6,8,10-triazatricyclo[9.4.0.0^2,7]pentadeca-1(11),2(7),3,5,12,14-hexaen-9-one]
Ki: < 100 nM

CCN1C(=O)N(c2c(F)cc(NCCNC)cc2F)c2c(ccc(Cl)c2F)-c2cc(Cl)cnc21 [3-9, 4,13-dichloro-10-(2,6-difluoro-4-{[2-(methylamino)ethyl]amino}phenyl)-8-ethyl-12-fluoro-6,8,10-triazatricyclo[9.4.0.0^2,7]pentadeca-1(11),2(7),3,5,12,14-hexaen-9-one]
Ki: < 100 nM

CCN1C(=O)N(c2c(F)cc(NCCNCCNC(=O)OC)cc2F)c2cc(C#N)ccc2-c2cc(Cl)cnc21 [1-167, Methyl N-[2-({2-[(4-{4-chloro-13-cyano-8-ethyl-9-oxo-6,8,10-triazatricyclo[9.4.0.0^2,7]pentadeca-1(11),2(7),3,5,12,14-hexaen-10-yl}-3,5-difluorophenyl)amino]ethyl}amino)ethyl]carbamate]
Ki: < 100 nM

CCN1C(=O)N(c2c(F)cc(NCCNC)cc2F)c2cc(Cl)cc(F)c2-c2cc(F)cnc21 [1-94, 13-chloro-10-(2,6-difluoro-4-{[2-(methylamino)ethyl]amino}phenyl)-8-ethyl-4,15-difluoro-6,8,10-triazatricyclo[9.4.0.0^2,7]pentadeca-1(11),2(7),3,5,12,14-hexaen-9-one]
Ki: < 100 nM

CCN1C(=O)N(c2ccc(NCCNC3CCOCC3)cc2F)c2cc(Cl)ccc2-c2cc(Cl)cnc21 [2-12, 4,13-dichloro-8-ethyl-10-[2-fluoro-4-({2-[(oxan-4-yl)amino]ethyl}amino)phenyl]-6,8,10-triazatricyclo[9.4.0.0^2,7]pentadeca-1(11),2(7),3,5,12,14-hexaen-9-one]
Ki: < 100 nM

CCN1C(=O)N(c2c(F)cc(NCCNC)cc2F)c2cc(Cl)ccc2-c2c1ncc(F)c2C [3-7, 13-chloro-10-(2,6-difluoro-4-{[2-(methylamino)ethyl]amino}phenyl)-8-ethyl-4-fluoro-3-methyl-6,8,10-triazatricyclo[9.4.0.0^2,7]pentadeca-1(11),2(7),3,5,12,14-hexaen-9-one]
Ki: < 100 nM

CCN1C(=O)N(c2c(F)cc(NCCNCCO)cc2F)c2cc(C#N)ccc2-c2cc(C(F)(F)F)cnc21 [1-98, 10-[2,6-difluoro-4-({2-[(2-hydroxyethyl)amino]ethyl}amino)phenyl]-8-ethyl-9-oxo-4-(trifluoromethyl)-6,8,10-triazatricyclo[9.4.0.0^2,7]pentadeca-1(11),2(7),3,5,12,14-hexaene-13-carbonitrile]
Ki: < 100 nM

CCN1C(=O)N(c2c(F)cc(NCCN[C@H](CO)C(=O)O)cc2F)c2cc(C#N)ccc2-c2cc(Cl)cnc21 [1-220, (2R)-2-({2-[(4-{4-chloro-13-cyano-8-ethyl-9-oxo-6,8,10-triazatricyclo[9.4.0.0^2,7]pentadeca-1(11),2(7),3,5,12,14-hexaen-10-yl}-3,5-difluorophenyl)amino]ethyl}amino)-3-hydroxypropanoic acid]
Ki: < 100 nM

CCN1C(=O)N(c2c(F)cc(NCCN[C@@H]3CC[C@H]3O)cc2F)c2cc(C#N)ccc2-c2cc(F)cnc21 [1-218, 10-{2,6-difluoro-4-[(2-{[(1R,2R)-2-hydroxycyclobutyl]amino}ethyl)amino]phenyl}-8-ethyl-4-fluoro-9-oxo-6,8,10-triazatricyclo[9.4.0.0^2,7]pentadeca-1(11),2(7),3,5,12,14-hexaene-13-carbonitrile]
Ki: < 100 nM

CCN1C(=O)N(c2c(F)cc(NCCNCCOC)cc2F)c2cc(Cl)ccc2-c2cc(Cl)cnc21 [1-74, 4,13-dichloro-10-[2,6-difluoro-4-({2-[(2-methoxyethyl)amino]ethyl}amino)phenyl]-8-ethyl-6,8,10-triazatricyclo[9.4.0.0^2,7]pentadeca-1(11),2(7),3,5,12,14-hexaen-9-one]
Ki: < 100 nM

CCN1C(=O)N(c2c(F)cc(NCCNC)cc2F)c2cc(Cl)cc(C)c2-c2cccnc21 [1-23, 13-chloro-10-(2,6-difluoro-4-{[2-(methylamino)ethyl]amino}phenyl)-8-ethyl-15-methyl-6,8,10-triazatricyclo[9.4.0.0^2,7]pentadeca-1(11),2(7),3,5,12,14-hexaen-9-one]
Ki: < 100 nM

CC(C)N1C(=O)N(c2c(F)cc(NCCNCCO)cc2F)c2cc(C#N)ccc2-c2cc(F)cnc21 [1-85, 10-[2,6-difluoro-4-({2-[(2-hydroxyethyl)amino]ethyl}amino)phenyl]-4-fluoro-9-oxo-8-(propan-2-yl)-6,8,10-triazatricyclo[9.4.0.0^2,7]pentadeca-1(11),2(7),3,5,12,14-hexaene-13-carbonitrile]
Ki: < 100 nM

CNCCNc1ccc(N2C(=O)N(C)c3ncccc3-c3ccc(Cl)cc32)cc1 [2-1, 13-chloro-8-methyl-10-(4-{[2-(methylamino)ethyl]amino}phenyl)-6,8,10-triazatricyclo[9.4.0.0^2,7]pentadeca-1(11),2(7),3,5,12,14-hexaen-9-one]
Ki: 100 to 1000 nM

CCN1C(=O)N(c2ccc(NCCNC)cc2)c2cc(Cl)ccc2-c2cc(C)cnc21 [2-5, 13-chloro-8-ethyl-4-methyl-10-(4-{[2-(methylamino)ethyl]amino}phenyl)-6,8,10-triazatricyclo[9.4.0.0^2,7]pentadeca-1(11),2(7),3,5,12,14-hexaen-9-one]
Ki: < 100 nM

CCN1C(=O)N(c2c(F)cc(NCCN[C@H]3CC[C@H](C(=O)O)CC3)cc2F)c2cc(C#N)ccc2-c2cc(Cl)cnc21 [1-193, (1r,4r)-4-({2-[(4-{4-chloro-13-cyano-8-ethyl-9-oxo-6,8,10-triazatricyclo[9.4.0.0^2,7]pentadeca-1(11),2(7),3,5,12,14-hexaen-10-yl}-3,5-difluorophenyl)amino]ethyl}amino)cyclohexane-1-carboxylic acid]
Ki: < 100 nM

CN1C(=O)N(c2c(F)cc(NCCNCCO)cc2F)c2cc(C#N)ccc2-c2cc(Cl)cnc21 [1-195, 4-chloro-10-[2,6-difluoro-4-({2-[(2-hydroxyethyl)amino]ethyl}amino)phenyl]-8-methyl-9-oxo-6,8,10-triazatricyclo[9.4.0.0^2,7]pentadeca-1(11),2(7),3,5,12,14-hexaene-13-carbonitrile]
Ki: < 100 nM

CCN1C(=O)N(c2c(F)cc(NCCNC)cc2F)c2cc(Cl)ccc2-c2cccnc21 [1-2, 13-chloro-10-(2,6-difluoro-4-{[2-(methylamino)ethyl]amino}phenyl)-8-ethyl-6,8,10-triazatricyclo[9.4.0.0^2,7]pentadeca-1(11),2(7),3,5,12,14-hexaen-9-one]
Ki: < 100 nM

CCN1C(=O)N(c2c(F)cc(NCCN(C)CCO)cc2F)c2cc(Cl)ccc2-c2cc(Cl)cnc21 [1-73, 4,13-dichloro-10-[2,6-difluoro-4-({2-[(2-hydroxyethyl)(methyl)amino]ethyl}amino)phenyl]-8-ethyl-6,8,10-triazatricyclo[9.4.0.0^2,7]pentadeca-1(11),2(7),3,5,12,14-hexaen-9-one]
Ki: < 100 nM

CCCN1C(=O)N(c2c(F)cc(NCCNCCO)cc2F)c2cc(C#N)ccc2-c2cc(F)cnc21 [1-118, 10-[2,6-difluoro-4-({2-[(2-hydroxyethyl)amino]ethyl}amino)phenyl]-4-fluoro-9-oxo-8-propyl-6,8,10-triazatricyclo[9.4.0.0^2,7]pentadeca-1(11),2(7),3,5,12,14-hexaene-13-carbonitrile]
Ki: < 100 nM

CCN1C(=O)N(c2c(F)cc(NCCNC[C@H](O)c3ccccc3)cc2F)c2cc(C#N)ccc2-c2cc(Cl)cnc21 [1-230, 4-chloro-10-{2,6-difluoro-4-[(2-{[(2R)-2-hydroxy-2-phenylethyl]amino}ethyl)amino]phenyl}-8-ethyl-9-oxo-6,8,10-triazatricyclo[9.4.0.0^2,7]pentadeca-1(11),2(7),3,5,12,14-hexaene-13-carbonitrile]
Ki: < 100 nM

CCN1C(=O)N(c2c(F)cc(N3CCN(CCO)CC3)cc2F)c2cc(C#N)ccc2-c2cc(Cl)cnc21 [1-144, 4-chloro-10-{2,6-difluoro-4-[4-(2-hydroxyethyl)piperazin-1-yl]phenyl}-8-ethyl-9-oxo-6,8,10-triazatricyclo[9.4.0.0^2,7]pentadeca-1(11),2(7),3,5,12,14-hexaene-13-carbonitrile]
Ki: < 100 nM

CCN1C(=O)N(c2c(F)cc(NCCNCCC(=O)O)cc2F)c2cc(Cl)ccc2-c2cc(Cl)cnc21 [1-72, 3-({2-[(4-{4,13-dichloro-8-ethyl-9-oxo-6,8,10-triazatricyclo[9.4.0.0^2,7]pentadeca-1(11),2(7),3,5,12,14-hexaen-10-yl}-3,5-difluorophenyl)amino]ethyl}amino)propanoic acid]
Ki: < 100 nM
